Series [1] has as its system HEK293T cells transiently transfected with a cytosolic GFP-HaloTag fusion construct. Put plainly: Intracellular uncaging and membrane permeability in live cells, confocal microscopy. The format is cell-based, human. Here is the method:
Green (left column), red (middle column), and blue (not shown) channels represent GFP, TAMRA, and Hoechst 33342 fluorescence, respectively. The merged image (right column) is a composite of all three channels with a phase contrast image.
HEK293T cells were transiently transfected with a cytosolic GFP-HaloTag fusion construct, then treated with 100 µM compound 10.

A short description of series [2]: Reaction kinetics of N-oxides with B2pin2, stopped-flow fluorometry, pseudo-first order. Particulars: reaction with B2pin2 in PBS (pH 7.4), pseudo-first order conditions. Here is the method:
Data represent the mean of experiments performed in triplicate. […] Data represent the mean of experiments performed in triplicate. Error bars represent a standard deviation. […] Data represent the mean of experiments performed in triplicate. […] Data represent the mean of experiments done in triplicate. Error bars represent a standard deviation.
The kinetics of the reaction were first evaluated using N-oxide 6 (FIG. 2, panel A).
The reaction was then performed on a biomolecule. […] It should be noted, however, that pseudo-first-order kinetics performed under saturating conditions can obscure important information regarding the deactivation of the diboron reagent through sequestration or off-target reactivity. To address this issue, a 64-kDa GFP-HaloTag fusion protein was expressed, ligated to compound 10 to produce GFP-HaloTag-10.

Series [3] is described as follows: Reaction kinetics of amine N-oxide with p-nitrophenylboronic acid in water, UV/vis absorption of p-nitrophenol, pseudo-first order. Particulars: reaction with p-nitrophenylboronic acid (2) in water, room temperature. Here is the method: A first experiment was performed to determine the kinetic parameters for the reaction between TMAO (1) and p-nitrophenylboronic acid (2) in water (see FIG. 1, panel A). Reaction progress was monitored by UV/vis absorption of product p-nitrophenol (3) under pseudo-first order conditions. A second-order rate constant of 2.83±0.05×10^−6 M^−1s^−1 was determined for the reaction at room temperature, several orders of magnitude below current standards of bioorthogonal reactivity (see e.g., Lang et al., ACS Chem. Biol. 2014, 9, 16; McKay et al. Chem. Biol. 2014, 21, 1075; Patterson et al., ACS Chem. Biol. 2014, 9, 592; (e) Sletten et al., Angew. Chem. Int. Ed. 2009, 48, 6974) but nonetheless a starting point for kinetic optimization.

From patent US20180215783A1, “BIOORTHOGONAL REACTION OF AN AMINE N-OXIDE AND A BORON AGENT” (The Regents of the University of California, priority 2015, published 2018) come the findings set out here.

Consider “5(6)-HaloTag Tetramethylrhodamine Bis-N-Oxide [compound 10]”, for which the “TAMRA signal upon addition of B2pin2” value in series [1] (cells loaded with compound, washed, B2pin2 0 μM, 10 μM, 100 μM or 1 mM in media for 45 min) is given as “increased”. The membrane permeability entry in series [1] (live HEK293T cells) was “cell permeable”.

As for HaloTag Rhodol N-Oxide [compound 8], in series [2], the second-order rate constant was 1.71±0.043×10^3 M^−1s^−1.

Consider `C[N+](C)(C)[O-]` [TMAO, Trimethylamine N-oxide], for which the second-order rate constant in series [3] was 2.83±0.05×10^−6 M^−1s^−1.
